# Molecular target: T1, human mGluR5a receptor (Homo sapiens, UniProt P41594)
# T1 construct: cDNA subcloned into pcDNA3.1(-)
# Experiment: Cell-based functional Ca2+ mobilization assay (FDSS), potentiation of glutamate EC20 response
# Details: HEK cells transfected with human mGluR5 (H10H or H12H); in presence of EC20 glutamate
# Procedure: Human embryonic kidney (HEK) cells transfected with rat mGluR5 were plated in clear bottom assay plates for assay in a Functional Drug Screening System (FDSS). In the alternative assay, HEK cells transfected with human mGluR5 were plated for assay in the FDSS. In some cases the HEK cells transfected with human mGluR5 were the H10H cell line. Alternatively, the HEK cells transfected with human mGluR5 were the H12H cell line. […] The cells were loaded with a Ca^2+-sensitive fluorescent dye (e.g., Fluo-4), and the plates were washed and placed in the FDSS instrument. After establishment of a fluorescence baseline for twelve seconds, the compounds of the present invention were added to the cells, and the response in cells was measured. Alternatively, in various further aspects, after establishment of a fluorescence baseline for about three seconds, the compounds of the present invention were added to the cells, and the response in cells was measured. Five minutes later, an mGluR5 agonist (e.g., glutamate, 3,5-dihydroxyphenylglycine, or quisqualate) was added to the cells, and the response of the cells was measured.
# The above described assay operated in two modes. In the first mode, a range of concentrations of the present compounds were added to cells, followed by a single fixed concentration of agonist. If a compound acted as a potentiator, an EC50 value for potentiation and a maximum extent of potentiation by the compound at this concentration of agonist was determined by non-linear curve fitting. In the second mode, several fixed concentrations of the present compounds were added to various wells on a plate, followed by a range of concentrations of agonist for each concentration of present compound; the EC50 values for the agonist at each concentration of compound were determined by non-linear curve fitting. A decrease in the EC50 value of the agonist with increasing concentrations of the present compounds (a leftward shift of the agonist concentration-response curve) is an indication of the degree of mGluR5 potentiation at a given concentration of the present compound. An increase in the EC50 value of the agonist with increasing concentrations of the present compounds (a rightward shift of the agonist concentration-response curve) is an indication of the degree of mGluR5 antagonism at a given concentration of the present compound. The second mode also indicates whether the present compounds also affect the maximum response to mGluR5 to agonists.
# The mGluR5 activity was determined using the metabotropic glutamate receptor activity assays in human embryonic kidney cells as described herein, wherein the human embryonic kidney cells were transfected with human mGluR5. The compounds in Table 1 were synthesized with methods identical or analogous to those shown herein. The requisite starting materials were commercially available, described in the literature, or readily synthesized by one skilled in the art of organic synthesis. The compound number given in Table I corresponds to the compound number in Table II and the structure given therein.
# Human mGluR5a cDNA in pCMV6-XL6 mammalian expression plasmid was purchased from OriGene Technologies, Inc. (catalogue number SC326357) and subcloned into pcDNA3.1(−). Human embryonic kidney (HEK) 293A cells were then transfected with human mGluR5a pcDNA3.1(−) using LipofectAmine-2000 (Invitrogen) and monoclones were selected and tested for functional response using a Ca^2+ mobilization assay. Monoclones were named for the species (“H” for human) plus the location on the plate (e.g. “10H”).
# HEK cells transfected with the human mGluR5a receptor (H10H or H12H cell line) were plated at 15,000 cells/well in clear-bottomed poly-D-lysine-coated assay plates (BD Falcon) in glutamate-glutamine-free growth medium and incubated overnight at 37° C. and 5% CO2.
# T1 sequence (P41594 21-1180 isoform P41594-2 limits assumed): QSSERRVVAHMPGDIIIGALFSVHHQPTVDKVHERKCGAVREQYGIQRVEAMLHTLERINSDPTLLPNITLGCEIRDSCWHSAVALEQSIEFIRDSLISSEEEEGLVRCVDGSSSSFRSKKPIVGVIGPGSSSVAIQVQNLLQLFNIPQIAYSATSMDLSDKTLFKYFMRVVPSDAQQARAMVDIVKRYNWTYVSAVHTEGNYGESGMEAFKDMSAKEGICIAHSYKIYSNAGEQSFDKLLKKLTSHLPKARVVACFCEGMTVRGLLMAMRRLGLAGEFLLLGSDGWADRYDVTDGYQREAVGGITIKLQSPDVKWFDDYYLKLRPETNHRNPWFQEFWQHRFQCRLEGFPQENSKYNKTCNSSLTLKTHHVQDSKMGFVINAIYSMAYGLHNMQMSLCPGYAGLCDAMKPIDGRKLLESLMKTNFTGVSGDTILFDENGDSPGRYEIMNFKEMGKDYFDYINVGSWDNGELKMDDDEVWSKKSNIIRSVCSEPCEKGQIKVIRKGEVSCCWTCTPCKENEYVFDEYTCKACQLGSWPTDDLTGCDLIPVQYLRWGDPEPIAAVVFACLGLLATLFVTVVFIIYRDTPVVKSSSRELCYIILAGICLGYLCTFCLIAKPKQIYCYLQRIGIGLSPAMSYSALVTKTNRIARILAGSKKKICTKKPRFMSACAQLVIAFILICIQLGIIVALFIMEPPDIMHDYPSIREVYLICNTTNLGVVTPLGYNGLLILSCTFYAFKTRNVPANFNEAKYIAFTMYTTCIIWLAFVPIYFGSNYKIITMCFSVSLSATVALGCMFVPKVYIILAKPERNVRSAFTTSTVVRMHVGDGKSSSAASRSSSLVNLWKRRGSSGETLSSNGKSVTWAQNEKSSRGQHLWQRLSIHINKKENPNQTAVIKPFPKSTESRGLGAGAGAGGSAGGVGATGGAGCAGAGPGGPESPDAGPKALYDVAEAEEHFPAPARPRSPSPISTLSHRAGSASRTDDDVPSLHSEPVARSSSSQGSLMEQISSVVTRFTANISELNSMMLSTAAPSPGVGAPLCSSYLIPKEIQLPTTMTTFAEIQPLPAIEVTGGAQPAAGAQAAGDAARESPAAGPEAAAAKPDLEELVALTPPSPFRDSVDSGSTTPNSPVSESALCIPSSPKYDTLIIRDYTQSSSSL
row,pEC50,Structure (SMILES)
1,5.96,COc1ccnc(N2CCn3nc(COc4ccccc4)cc3C2=O)c1 [Example 115]
2,5.69,COc1cncnc1N1CCn2nc(COc3ccccc3)cc2C1=O [Example 118]
3,6.91,COc1cc(N2CCn3nc(COc4ccccc4)cc3C2=O)nc(OC)n1 [Example 122]
4,6.68,COc1cc(OC)nc(N2CCn3nc(COc4ccccc4)cc3C2=O)n1 [Example 127]
5,6.13,CC1Cn2nc(COc3ccccc3)cc2C(=O)N1CC1CC1 (stereo not drawn) [Example 136]
6,6.05,CC1Cn2nc(COc3ccccc3)cc2C(=O)N1c1ccc(F)cn1 (stereo not drawn) [Example 139]
7,7.19,CC1Cn2nc(COc3ccccc3)cc2C(=O)N1c1ccc(F)cc1 (stereo not drawn) [Example 142]
8,5.85,COc1nccc(N2C(=O)c3cc(COc4ccccc4)nn3CC2C)n1 (stereo not drawn) [Example 145]
9,6.27,COc1nc(N2C(=O)c3cc(COc4ccccc4)nn3CC2C)ncc1F (stereo not drawn) [Example 147]
10,7.22,Cc1cccc(N2C(=O)c3cc(COc4ccccc4)nn3CC2C)c1 (stereo not drawn) [Example 153]
11,6.24,CC1Cn2nc(COc3ccccc3)cc2C(=O)N1c1ccc(F)cc1 (stereo not drawn) [Example 157]
12,6.32,O=C1c2cc(COc3ccccn3)nn2CCN1c1ccc(F)cc1 [Example 159]
13,<4.52,N#Cc1cccc(OCc2cc3n(n2)CCN(CC2CC2)C3=O)c1 [Example 164]
14,6.98,O=C1c2cc(COc3ccc(F)cc3)nn2CCN1c1ccc(F)cc1 [Example 165]
15,6.58,O=C1c2cc(COc3ccc(F)cc3)nn2CCN1CC1CC1 [Example 167]

# Same assay, conditions: HEK cells transfected with human mGluR5 (H10H or H12H); in presence of EC20 glutamate; read-out: EC50
row,EC50 [µM],Structure (SMILES)
1,0.437,COCCOc1cccc(N2CCn3nc(COc4ccccc4)cc3C2=O)n1 [Example 85]
2,0.389,COc1ncc(C)c(N2CCn3nc(COc4ccccc4)cc3C2=O)n1 [Example 106]
3,0.724,COc1ncncc1N1CCn2nc(COc3ccccc3)cc2C1=O [Example 113]
4,1.1,COc1ccnc(N2CCn3nc(COc4ccccc4)cc3C2=O)c1 [Example 115]
5,2,COc1cncnc1N1CCn2nc(COc3ccccc3)cc2C1=O [Example 118]
6,2.3,COc1cnc(C)nc1N1CCn2nc(COc3ccccc3)cc2C1=O [Example 119]
7,0.12,COc1cc(N2CCn3nc(COc4ccccc4)cc3C2=O)nc(OC)n1 [Example 122]
8,> 10,COc1cnnc(N2CCn3nc(COc4ccccc4)cc3C2=O)c1 [Example 125]
9,0.21,COc1cc(OC)nc(N2CCn3nc(COc4ccccc4)cc3C2=O)n1 [Example 127]
10,0.741,CC1Cn2nc(COc3ccccc3)cc2C(=O)N1CC1CC1 (stereo not drawn) [Example 136]
11,0.891,CC1Cn2nc(COc3ccccc3)cc2C(=O)N1c1ccc(F)cn1 (stereo not drawn) [Example 139]
12,0.065,CC1Cn2nc(COc3ccccc3)cc2C(=O)N1c1ccc(F)cc1 (stereo not drawn) [Example 142]
13,1.41,COc1nccc(N2C(=O)c3cc(COc4ccccc4)nn3CC2C)n1 (stereo not drawn) [Example 145]
14,0.537,COc1nc(N2C(=O)c3cc(COc4ccccc4)nn3CC2C)ncc1F (stereo not drawn) [Example 147]
15,0.06,Cc1cccc(N2C(=O)c3cc(COc4ccccc4)nn3CC2C)c1 (stereo not drawn) [Example 153]
16,0.575,CC1Cn2nc(COc3ccccc3)cc2C(=O)N1c1ccc(F)cc1 (stereo not drawn) [Example 157]
17,3.09,O=C1c2cc(COc3cccnc3)nn2CCN1c1ccc(F)cc1 [Example 158]
18,0.479,O=C1c2cc(COc3ccccn3)nn2CCN1c1ccc(F)cc1 [Example 159]
19,1.32,O=C1c2cc(COc3cncc(F)c3)nn2CCN1c1ccc(F)cc1 [Example 161]
20,2.51,O=C1c2cc(COc3ccccn3)nn2CCN1CC1CC1 [Example 162]
21,2.24,O=C1c2cc(COc3ccncc3)nn2CCN1CC1CC1 [Example 163]
22,> 30.2,N#Cc1cccc(OCc2cc3n(n2)CCN(CC2CC2)C3=O)c1 [Example 164]
23,0.105,O=C1c2cc(COc3ccc(F)cc3)nn2CCN1c1ccc(F)cc1 [Example 165]
24,0.263,O=C1c2cc(COc3ccc(F)cc3)nn2CCN1CC1CC1 [Example 167]

# Same assay, conditions: maximum % effect in concentration-response curve, as percent of response to maximally effective glutamate
Emax [%],Emax (%),Structure (SMILES)
72,,COCCOc1cccc(N2CCn3nc(COc4ccccc4)cc3C2=O)n1 [Example 85]
53,,COc1ncc(C)c(N2CCn3nc(COc4ccccc4)cc3C2=O)n1 [Example 106]
57,,COc1ncncc1N1CCn2nc(COc3ccccc3)cc2C1=O [Example 113]
,66,COc1ccnc(N2CCn3nc(COc4ccccc4)cc3C2=O)c1 [Example 115]
,67,COc1cncnc1N1CCn2nc(COc3ccccc3)cc2C1=O [Example 118]
72,,COc1cnc(C)nc1N1CCn2nc(COc3ccccc3)cc2C1=O [Example 119]
,61,COc1cc(N2CCn3nc(COc4ccccc4)cc3C2=O)nc(OC)n1 [Example 122]
48,,COc1cnnc(N2CCn3nc(COc4ccccc4)cc3C2=O)c1 [Example 125]
,63,COc1cc(OC)nc(N2CCn3nc(COc4ccccc4)cc3C2=O)n1 [Example 127]
,56,CC1Cn2nc(COc3ccccc3)cc2C(=O)N1CC1CC1 (stereo not drawn) [Example 136]
,43,CC1Cn2nc(COc3ccccc3)cc2C(=O)N1c1ccc(F)cn1 (stereo not drawn) [Example 139]
,68,CC1Cn2nc(COc3ccccc3)cc2C(=O)N1c1ccc(F)cc1 (stereo not drawn) [Example 142]
,59,COc1nccc(N2C(=O)c3cc(COc4ccccc4)nn3CC2C)n1 (stereo not drawn) [Example 145]
,72,COc1nc(N2C(=O)c3cc(COc4ccccc4)nn3CC2C)ncc1F (stereo not drawn) [Example 147]
,71,Cc1cccc(N2C(=O)c3cc(COc4ccccc4)nn3CC2C)c1 (stereo not drawn) [Example 153]
,63,CC1Cn2nc(COc3ccccc3)cc2C(=O)N1c1ccc(F)cc1 (stereo not drawn) [Example 157]
69,,O=C1c2cc(COc3cccnc3)nn2CCN1c1ccc(F)cc1 [Example 158]
,69,O=C1c2cc(COc3ccccn3)nn2CCN1c1ccc(F)cc1 [Example 159]
68,,O=C1c2cc(COc3cncc(F)c3)nn2CCN1c1ccc(F)cc1 [Example 161]
47,,O=C1c2cc(COc3ccccn3)nn2CCN1CC1CC1 [Example 162]
63,,O=C1c2cc(COc3ccncc3)nn2CCN1CC1CC1 [Example 163]
,28,N#Cc1cccc(OCc2cc3n(n2)CCN(CC2CC2)C3=O)c1 [Example 164]
,71,O=C1c2cc(COc3ccc(F)cc3)nn2CCN1c1ccc(F)cc1 [Example 165]
,64,O=C1c2cc(COc3ccc(F)cc3)nn2CCN1CC1CC1 [Example 167]
